Drawing on PubChem BioAssay AID1159563 (GlaxoSmithKline (GSK), 2015), this text covers IC50 for 64 compounds.

Calls of active or inactive are those of the source. How the calls were made is not given here. Some results are limits rather than exact numbers.

The experiment has as its system HepG2 cytotoxicity. In words: human hepatoma cell viability loss – cytotoxicity control (AID 1159563).
Regarding `CNc1nc(C)nc(N2CCc3cc(C(=O)NCc4ccc(-c5nccn5C)cc4Cl)ccc32)n1`, the half-maximal inhibitory concentration (IC50) was 32 µM.
Under `Cn1nc([N+](=O)[O-])nc1Oc1ccc(C(=O)c2ccccc2)cc1` stands > 100 µM (inactive); under `CC1(C)CCC(=Cc2ccc(Cl)cc2)CC1(O)Cn1ccnc1` (centres undefined), 50 µM; under `Cc1nn2c(NCCCO)c3c(nc2c1-c1cccs1)CCC3`, > 100 µM (inactive).
Turning to `Nc1nccc(-c2csc(Nc3ccc(Cl)cc3)n2)n1`, the IC50 is > 100 µM (inactive).
Turning to `O=C(NCC(c1cccnc1)N1CCc2ccccc2C1)C(=O)Nc1cccc(Cl)c1` (centres undefined), the IC50 is > 100 µM (inactive).
Under `CS(=O)(=O)c1cccc(CNC(=O)c2cncc(N3CCN(c4ccc(F)cc4)CC3)c2)c1` stands > 100 µM (inactive).
Under `COc1ccccc1C(=O)Nc1nnc(-c2ccc3c(c2)OCO3)s1` stands > 100 µM (inactive); under `NC(=O)c1cc(F)ccc1Nc1nc(NC2CCC(O)CC2)ncc1Br` (centres undefined), 50 µM; under `O=C(CN1CCN(c2ccccn2)CC1)Nc1cc(S(=O)(=O)N2CCCCCC2)ccc1Cl`, > 100 µM (inactive).
As for `COc1ccc(CNc2cc(C3CC3)nc(-c3nccn3C)n2)cc1`, the figure is 25 µM; as for `Nc1nc(-c2ccccn2)nc(-n2nc(-c3cccc(C(F)(F)F)c3)cc2N)n1`, 20 µM.
On to `Cc1ccc(Nc2nc(N)nc(CNC(c3nc4ccccc4[nH]3)C(C)C)n2)cc1` (centres undefined), for which the IC50 was > 100 µM (inactive).
Take `Cc1cccc(NS(=O)(=O)c2ccc3c(c2)C(=O)c2cc(S(=O)(=O)Nc4cccc(C)c4C)ccc2-3)c1C`: the IC50 was > 100 µM (inactive).
Under `Cc1ccc(Nc2nc(-c3ccccn3)cc(N3CCCC(O)C3)n2)cc1` (centres undefined) stands 40 µM; under `CC(C)(C)CC(=O)NCc1noc(COc2ccccc2)n1`, > 100 µM (inactive).
As for `COc1ccc(OC)c2c(=O)c(Cc3ccccc3)c(C)[nH]c12`, the figure is > 100 µM (inactive); as for `Cc1ccc(C)c(OC2CCN(C(=O)C(C)n3ccnc3)CC2)c1` (centres undefined), > 100 µM (inactive); as for `Cc1cn[nH]c1C1CCCN(Cc2nc3ccccc3n2C)C1` (centres undefined), 50 µM.
Under `COc1ccc(C(=O)NC2CCN(CCn3c(=O)ccc4ncc(F)cc43)CC2)cc1Cl` stands > 100 µM (inactive); under `COc1ccc2ncc(F)c(NC(=O)C3(O)CCC(NCc4ccc5c(c4)OCCO5)CC3)c2n1` (centres undefined), 50 µM; under `O=C(c1ccc(O)c(Cl)c1)N1CCN(c2cnccn2)CC1`, > 100 µM (inactive).
Take `CNc1cc(Cn2c(C(=O)c3cc(C)cc(Cl)c3)c(C(C)C)c(=O)[nH]c2=O)ccn1`: the IC50 was > 100 µM (inactive).
Under `CC(=O)NCCNc1cc(-c2ccnc(Nc3cccc(Cl)c3)n2)ccn1` stands 25 µM; under `NS(=O)(=O)c1ccc(Nc2nccc(-c3cnn4ncccc34)n2)cc1`, > 100 µM (inactive); under `CNC(=O)C1Cc2ccccc2N1C(=O)Cc1ccc(OC)cc1` (centres undefined), > 100 µM (inactive).
For the compound `O=C(NCC1CCCCC1)c1cc(=O)c2ccccc2o1`, the IC50 was 25 µM.
For `CCCCCNC(=O)c1c[nH]c2ccc(S(=O)(=O)N(C)c3ccc(OCC)cc3)cc2c1=O`, the IC50 is > 100 µM (inactive).
Consider `O=C(c1cccc(Nc2ncc(-c3ccc4c(c3)OCO4)cn2)c1)N1CCSC1`, for which the IC50 is 10 µM.
`Cc1cc2ncn(-c3ccc([N+](=O)[O-])cc3C#N)c2cc1C`: the IC50 is > 100 µM (inactive).
`O=c1ccc2ccc(F)c3c2n1C[C@H]3CN1CCN(CC(O)c2cc3c(cn2)OCS3)CC1` (some centres undefined): the IC50 was > 100 µM (inactive).
As for `COc1ccc(CN2CCCCC2c2nc(-c3cccnc3)no2)cc1` (centres undefined), the figure is > 100 µM (inactive); as for `CS(=O)(=O)c1cccc(-c2cnc(N)c3c(-c4ccc(CO)cc4)csc23)c1`, > 100 µM (inactive).
As for `Clc1cc(Br)ccc1OCCCCn1ccnc1`, the figure is 50 µM; as for `NC(=O)c1ncccc1Nc1nc(NC2CCC(O)CC2)ncc1Br` (centres undefined), > 100 µM (inactive).
As to `Cc1cc(NC(=O)C2CCCCC2)n(-c2nc3c(c(=O)[nH]2)CCC3)n1`, the IC50 was 50 µM.
Take `COc1cccc(Nc2cc(C)nc(-c3ccccn3)n2)c1`: the IC50 is 50 µM.
Consider `CN(Cc1nnnn1C1CCN(Cc2ccc(-n3ccnc3)cc2)CC1)c1ccc(F)cc1F`, for which the IC50 is > 100 µM (inactive).
On to `Cc1cc(C#N)c([N+](=O)[O-])cc1Br`, for which the IC50 is 32 µM.
Under `COc1cccc(CCNC(=O)C(c2cn[nH]c2)N2CCN(c3ccc(Cl)cc3)CC2)c1` (centres undefined) stands 50 µM; under `Oc1cccnc1-c1n[nH]c(Cc2ccccc2)n1`, 79 µM.
Turning to `O=C(Nc1nc2ccccc2[nH]1)c1ccc2nc[nH]c2c1`, the IC50 was 50 µM.
As for `CC1CN(S(=O)(=O)c2ccc(NC(=O)c3cc(C4CC4)nc4c3cnn4C(C)C)cc2)CC(C)O1` (centres undefined), the figure is > 100 µM (inactive); as for `COc1ccc(-c2ccc3nnc(-c4ccc(O)c(OC)c4)n3c2)cn1`, > 100 µM (inactive); as for `c1ccc2sc(Nc3nc4ncccc4[nH]3)nc2c1`, 20 µM.
Regarding `CC(C)n1c(-c2nonc2N)nc2cccc(OCCN3CCCC3)c21`, the IC50 was > 100 µM (inactive).
With `COc1ccc(C2C3CCCCC3(O)CCN2CC(=O)Nc2ccc(Cl)cc2Cl)cc1` (centres undefined), the IC50 was > 100 µM (inactive).
Under `O=c1cc(NCCCNC2CCOc3c(I)cc(Cl)cc32)[nH]c2ccccc12` (centres undefined) stands 63 µM.
For the compound `Cc1ccc(CNC2CCN(C[C@@H]3Cn4c(=O)ccc5ccc(=O)n3c54)CC2)cc1F`, the IC50 is > 100 µM (inactive).
Under `COc1cc(-c2noc(CC#N)n2)ccc1OC(F)F` stands > 100 µM (inactive).
Under `CN(CCOc1ccc(Cl)cc1)Cc1nc(N)nc(N(C)C)n1` stands > 100 µM (inactive); under `NCc1csc(Nc2cc(Oc3ccccc3)ncn2)n1`, > 100 µM (inactive).
For `CN(Cc1ccc(F)cc1)c1ccc(OCC(=O)N2CCCCC2c2cccnc2)nn1` (centres undefined), the IC50 was > 100 µM (inactive).
As for `COc1cccc(CN(C)Cc2nc(N)c3c(C)c(C)sc3n2)c1`, the figure is 40 µM; as for `Cc1nc(-c2ccncc2)ncc1C(C)NC(=O)c1ccc(Cl)s1` (centres undefined), > 100 µM (inactive); as for `COc1ccc2ncc(=O)n(CCN3CC[C@H](NCc4ncc(Cl)c5[nH]ncc45)[C@H](O)C3)c2n1`, > 100 µM (inactive).
Under `O=C(NCCc1ccn(-c2ccccc2)n1)C1CCCCC1` stands > 100 µM (inactive).
As for `CCN(CC)c1nc(Nc2ccncc2)nc2ccccc12`, the figure is 50 µM.
In the case of `O=c1cc(NCCCNCc2cc(C(F)(F)F)cs2)[nH]c2ccccc12`, the IC50 was 63 µM.
As for `Cc1ccnc(NS(=O)(=O)c2ccc(NC(=O)c3ccc([N+](=O)[O-])s3)cc2)n1`, the figure is 16 µM; as for `O=C(N[C@H](CO)c1ccccc1)c1ccc(-c2c[nH]c3nccc(C(F)(F)F)c23)s1`, 63 µM.
For `Cc1cc(C)nc(N2CCC(N(Cc3cccnc3)C(=O)c3cccc(C#N)c3)CC2)n1`, the IC50 is > 100 µM (inactive).
Regarding `COc1ccccc1CNc1cc(C2CC2)nc(-c2nccn2C)n1`, the IC50 was 20 µM.
Under `CN1CCN(c2nc(-c3ccc(Cl)cc3)c3c(N)n(C)nc3n2)CC1` stands 79 µM.
